Data taken from patent US20250152559A1, “METHODS FOR TREATING MYC-AMPLIFIED CANCER” (The Governing Council of the University of Toronto, priority 2023, published 2025).

Legend:
[1] = test system: O-GlcNAc-conjugated proteins and c-Myc in HD-MB03 and SU_MB002 tumor cells; assay: Western blotting of O-GlcNAc-linked proteins and c-Myc; format: cell-based, human; conditions: HD-MB03 and SU_MB002, BAY vs vehicle
Text: Uridine metabolite depletion may impact not only the macromolecular demands of the rapidly cycling cellular phenotype identified through scRNA-seq analysis (inducing cell cycle arrest), but also the potentiation of oncogenic signaling programs. […] To determine whether reduced UDP-GlcNAc abundance influences O-GlcNAcylation of proteins and/or expression of c-Myc at the protein level, the abundance of β-O-glycosidic-linked proteins (Ser and Thr residues) and the expression of c-Myc protein in HD-MB03 and SU_MB002 tumor cells treated with BAY or its vehicle, were measured using Western blotting.
Protein lysates were isolated from approximately 500,000-1,000,000 cells. Pellets were rinsed with PBS and then lysed in RIPA buffer containing HALT™ protease inhibitor cocktail (ThermoFisher). Protein concentrations were quantified using the Bradford Assay (BioRad). Protein size was resolved via SDS-PAGE and then transferred to PVDF for immunoblotting. […] Quantification was performed by analyzing mean pixel density of each band and then normalizing to GAPDH loading control. […]

HD-MB03 PDOX = assay: Orthotopic PDOX model, IVIS bioluminescence and survival; format: in vivo, mice; conditions: HD-MB03, regimens R1 and R2 vs vehicle
Experimental: (§1) The treatment-naïve, patient-derived cell line, HD-MB03, was orthotopically engrafted into immunocompromised mice. Four days later, tumors were readily detectible via bioluminescence imaging. Thereafter mice were randomized into three cohorts, which were treated with either the vehicle or one of two BAY treatment regimens (R1 and R2; FIG. 5B).
PDOX were generated by engrafting 25,000 tumor cells (both SU_MB002 and HD-MB03 cell lines), suspended in 5 μL PBS, directly into the mouse cerebrum. Flank xenografts were generated by engrafting 2,000,000 tumor cells suspended in a 100 μL solution of PBS/Matrigel® (1:1 v/v). For preclinical studies, cells were engineered to express enhanced firefly luciferase. […] Flank tumors were isolated at matched time points and formalin fixed for 48 hours, paraffin embedded (FFPE) and sectioned for follow-up analysis. Tumor area was manually measured in H&E-stained sections of FFPE tissues using ImageJ.
(§2) For imaging via the in vivo imaging system (IVIS), mice were sedated with isoflurane gas and then administered luciferin substrate (150 mg/kg in PBS) via subcutaneous injection. After 10 minutes, bioluminescent signal (photons per second; p/s) was quantified using Living Image software.

HD-MB03 flank xenograft = assay: Subcutaneous flank xenograft, IVIS, H&E and Ki67 IHC; format: in vivo, mice
Experimental: In parallel to these experiments, subcutaneous flank xenografts were engrafted into two cohorts of mice, which were treated with the vehicle or R2. […] To investigate the pharmacokinetics of BAY in vivo, its concentration in plasma and brain tissues of healthy mice was directly quantified using an LC-MS approach. BAY was detected in both brains and plasma of mice undergoing treatment, however the plasma concentrations exceeded those of the brain by approximately 10-fold (FIG. 5H-I). To determine whether treatment with BAY affects de novo pyrimidine biosynthesis in vivo, changes in pyrimidine metabolism were measured in the brain in comparison to tumor tissues from the flank (FIG. 5J-K). Although BAY treatment impacted de novo pyrimidine metabolism in vivo in both brain and tumor tissues, with a similar pattern observed in vitro (FIG. 4A), the effect size was stronger in peripheral tumor tissue in comparison to brain tissue. Such findings further reflect the limited capacity for BAY to accumulate within the brain.
To examine histological consequences of DHODH inhibition in vivo, the xenografts from the flanks of BAY- and vehicle-treated mice were surgically resected one day after administering the final dose.
FFPE tissues were sectioned onto slides and then deparaffinized prior to analysis. Samples were stained with H&E for histological examination. In parallel, sections were blocked in 5% BSA (anti-Ki67, anti-4E-BP1 Thr37/46, anti-DHODH) or 5% NGS (anti-EGR1) and stained with primary antibody at 4° C. overnight. […]
PDOX were generated by engrafting 25,000 tumor cells (both SU_MB002 and HD-MB03 cell lines), suspended in 5 μL PBS, directly into the mouse cerebrum. […] Tumor area was manually measured in H&E-stained sections of FFPE tissues using ImageJ.
as §2

[2] = Mouse body weight / tolerability during treatment regimens; format: in vivo
Experimental: as §1

[3] = test system: p-4EBP1 and EGR1 expression in PDOX; assay: IHC of time-matched PDOX from brains of treated mice; format: in vivo; conditions: PDOX after final dose, vs vehicle-treated PDOX
Experimental: To determine whether mechanisms identified in vitro extend to the in vivo orthotopic model, time-matched PDOX were isolated from the brains of BAY-treated mice after the final dose of BAY was administered. […] An infrequent EGR1^+ subpopulation of tumor cells was also detected, which varied in the levels of nuclear EGR1 expression (FIG. 10H).
FFPE tissues were sectioned onto slides and then deparaffinized prior to analysis. Samples were stained with H&E for histological examination. In parallel, sections were blocked in 5% BSA (anti-Ki67, anti-4E-BP1 Thr37/46, anti-DHODH) or 5% NGS (anti-EGR1) and stained with primary antibody at 4° C. overnight. Rabbit anti-Ki67 (Thermo Fisher Scientific; Catalogue #RM-9106-S0) was diluted 1:100, rabbit anti-EGR1 (Cell Signaling Technologies; catalogue #4145) was diluted 1:200, rabbit anti-4E-BP1 Thr37/46 (Cell Signaling Technologies; catalogue #2855) was diluted 1:1000, and rabbit anti-DHODH (Proteintech 14877-1-AP) was diluted 1:200. Anti-rabbit HRP-conjugated secondary antibodies (Abcam; Catalogue #ab214880) were used with DAB for development (Vector Laboratories; Catalogue #SK-4100). All slides were scanned using Image Scope (Aperio).

Q: For `CCn1c(CO)nn(-c2cc(O[C@@H](C)C(F)(F)F)c(C(=O)Nc3c(F)cccc3Cl)cc2F)c1=O` [BAY2402234], which “abundance of O-GlcNAc-conjugated proteins” value [1] is on record?
A: global reduction

Q: What about the c-Myc protein expression [1] of the same molecule?
A: significant reduction

Q: What about the overall survival (HD-MB03 PDOX) of the same molecule?
A: prolonged overall survival

Q: And the “PDOX growth (IVIS bioluminescence)” value (HD-MB03 PDOX; oral gavage)?
A: significantly attenuated

Q: And the “antitumoral response of flank tumors compared to orthotopic xenografts” value (HD-MB03 flank xenograft; HD-MB03 flank, R2)?
A: much stronger antitumoral response

Q: And the “tumor cell density (H&E)” value (HD-MB03 flank xenograft; flank xenografts resected one day after final dose, vs vehicle)?
A: remarkably reduced

Q: What about the “Ki67 expression (IHC) in surviving tumor cells” value (HD-MB03 flank xenograft; residual flank xenograft tissues) of the same molecule?
A: reduction in Ki67 expression

Q: And the “tolerability over the entire treatment period” value ([2]; 5 mg/kg)?
A: well-tolerated

Q: What about the body weight ([2]; R2, after the 10 mg/kg doses) of the same molecule?
A: marginal, temporary weight loss

Q: And the “EGR1 expression (IHC)” value [3]?
A: induced EGR1 expression

Q: What about the “p-4EBP1 expression (IHC)” value [3] of the same molecule?
A: decreased p-4EBP1 expression
